Test results published in US20110236506A1, “PHARMACEUTICAL ASSOCIATION CONTAINING LIPOIC ACID AND HYDROXYCITRIC ACID AS ACTIVE INGREDIENTS” (priority 2008, published 2011).

Key:
[1] = tested on: MBT-2 murine bladder tumors; assay: Antitumor activity tests on C3H mice with implanted MBT-2 tumors; format: in vivo
Description: The compositions described hereinafter were tested against MBT-2 murine bladder tumors implanted in syngeneic C3H mice. These mice develop a tumor of 7 to 10 mm in diameter in approximately 20 days. The pharmaceutical combinations according to the invention and also the control compositions were administered intraperitoneally, for 21 days, starting from the 19th day after tumor inoculation. The change in tumor development was monitored by measuring the size of the tumors and monitoring the survival of the animals during the experiment.
The mice were randomized in groups of 18 individuals, the tumor of which is palpable (size of approximately 10 mm, after approximately 19 days of tumor development), according to the size of the tumor and the weight of the animals. For each animal, the maximum diameter of each tumor was measured with a Vernier caliper in order to determine the tumor volume. […]
The treatment with 5-FU (positive control) was administered intraperitoneally with a dose of 10 mg/kg once a day for 4 days. The mice treated with 5-FU were monitored in the same way as the other mice.
Every five days, the evolution of the tumor was monitored by various measurements: weight of the animals, tumor size (caliper rule), mortality. […]

[2] = tested on: HT-29 tumor cell line; assay: Cell proliferation and viability test (MTT / number of cells), HT-29 cell line; format: cell-based, human; settings: molecule tested alone, relative to control culture
Description: The HT-29 tumor cell line was isolated in 1964 from a primary colonic adenocarcinoma in a person (Fogh J. et al. 1977 J. Nat. Cancer. Inst. 59: 221-6).
(§1) The tumor cell lines were cultured in monolayer at 37° C. in a humidified atmosphere (5% CO2, 95% air). The culture medium which was used is DMEM Glutamax I (Invitrogen) for the two lines, supplemented with 10% of fetal calf serum (Eurobio) and 1/10 000 IU of penicillin and streptomycin. For carrying out the experiments, the human tumor cell lines were detached from the culture flask by treatment for 10 minutes with a solution of trypsin in Hanks medium without calcium or magnesium. The cells were counted in a hemocytometer and their viability was determined using the trypan blue exclusion test.
(§2) The tumor cell lines were amplified and then seeded into 96-well microplates (MTT) or 6-well plates (cell counts) at a concentration which allowed the cells to be in the proliferation phase for the 5 days of the culture. They were incubated for 48 hours before the beginning of the treatments in the microplates containing culture medium without the test substances or the reference substances.
During phase I (test with a single active ingredient), the tumor cell lines were incubated for 5 days at 37° C. under 5% CO2 with culture medium containing one of the test substances. Each experimental condition was reproduced six times. Generally, the flasks of culture medium supplemented with serum were first of all prepared with the highest concentration of each test molecule. Each other concentration to be tested was obtained by successive dilutions in the serum-supplemented culture medium. This step was adjusted according to the particular instability or sensitivity of each drug. […]
(§3) The tumor cell lines were incubated with 100 μl (96-well plates) or 2 ml (6-well plates) of serum-supplemented culture medium containing the test substances or the reference substance. The culture medium of each culture well (supplemented with the test molecule(s)) was renewed every two days during the treatment.
(§4) Starting from the first day of contact, and every two days after the beginning of the contacting of the culture media containing the test substances and the reference substances at the various concentrations tested, the proliferation and the cell viability of the cells were evaluated. The cell viability was evaluated in two different ways: • directly, under an optical microscope by statistical counting (number of cells), and • indirectly, by colorimetric assay based on the degradation of tetrazolium salts by mitochondrial dehydrogenases (MIT test). The optical densities (OD) of each well were then read with a microplate reader set at the appropriate wavelength.
(§5) For each active ingredient, each concentration tested and each combination, three cell viability values were measured and corrected, in particular by means of the calibration ranges for the optical reading instrument.
(§6) The mean of the three cell viability measurement values was then divided by the mean of the measurements of viability carried out in parallel in a control culture free of active ingredients.

[3] = tested on: T-24 tumor cell line; assay: Cell proliferation and viability test (MTT / number of cells), T-24 cell line; format: cell-based, human; settings: molecule tested alone, relative to control culture
Description: The T-24 tumor cell line is a transitional bladder carcinoma isolated from a person (O'Toole C M. et al. 1983 Nature 301: 429-30).
as §1, §2
During phase I (test with a single active ingredient), the tumor cell lines were incubated for 5 days at 37° C. under 5% CO2 with culture medium containing one of the test substances. Each experimental condition was reproduced six times. Generally, the flasks of culture medium supplemented with serum were first of all prepared with the highest concentration of each test molecule. Each other concentration to be tested was obtained by successive dilutions in the serum-supplemented culture medium. This step was adjusted according to the particular instability or sensitivity of each drug.
In phase II of the study (test with the combination of the two active ingredients), the same conditions for preparing the media and for culturing the cells were adhered to, and the active ingredients were combined and added simultaneously to the culture medium.
as §3, §4, §5, §6

[4] = tested on: HT-29 and T-24 cell lines; assay: Cell viability tests, observations stated jointly for the two cell lines; format: cell-based; settings: human, 5 days, 4 μmol.l−1
Description: as §1, with “test. […]” for “test.”
as §4

## O=c1[nH]cc(F)c(=O)[nH]1 [5-FU, 5-fluorouracil]
[1]; FIG. 4B, groups of 18 mice
  days of implantation after which 50% of the mice are still alive: 39 days
[1]; controls: 50% alive after 27 days
  increase in survival compared with the control mice: 12 days

## O=C(O)CCCCC1CCSS1 (stereo not drawn) [Lipoic acid, alpha-lipoic acid]
[2]; 0.1 μmol·l−1
  Ratio of live HT-29 cells after 72 hours, MTT: 0.807
  Ratio of live HT-29 cells after 72 hours, Number of cells: 0.853
[2]; 1 μmol·l−1
  Ratio of live HT-29 cells after 72 hours, MTT: 0.55
  Ratio of live HT-29 cells after 72 hours, Number of cells: 0.583
[2]; 10 μmol·l−1
  Ratio of live HT-29 cells after 72 hours, MTT: 0.452
  Ratio of live HT-29 cells after 72 hours, Number of cells: 0.441
[3]; 0.1 μmol·l−1
  Ratio of live T-24 cells after 72 hours, MTT: 0.898
  Ratio of live T-24 cells after 72 hours, Number of cells: 0.940
[3]; 1 μmol·l−1
  Ratio of live T-24 cells after 72 hours, MTT: 0.690
  Ratio of live T-24 cells after 72 hours, Number of cells: 0.772
[3]; 10 μmol·l−1
  Ratio of live T-24 cells after 72 hours, MTT: 0.534
  Ratio of live T-24 cells after 72 hours, Number of cells: 0.601
[4]
  cell mortality: ≤ 50%

## calcium hydroxycitrate
[2]; 10 μmol·l−1
  Ratio of live HT-29 cells after 72 hours, MTT: 0.743
  Ratio of live HT-29 cells after 72 hours, Number of cells: 0.777
[2]; 100 μmol·l−1
  Ratio of live HT-29 cells after 72 hours, MTT: 0.519
  Ratio of live HT-29 cells after 72 hours, Number of cells: 0.557
[2]; 500 μmol·l−1
  Ratio of live HT-29 cells after 72 hours, MTT: 0.376
  Ratio of live HT-29 cells after 72 hours, Number of cells: 0.374
[3]; 0.2 μmol·l−1
  Ratio of live T-24 cells after 72 hours, MTT: 0.725
  Ratio of live T-24 cells after 72 hours, Number of cells: 0.845
[3]; 3 μmol·l−1
  Ratio of live T-24 cells after 72 hours, MTT: 0.488
  Ratio of live T-24 cells after 72 hours, Number of cells: 0.643
[3]; 45 μmol·l−1
  Ratio of live T-24 cells after 72 hours, MTT: 0.359
  Ratio of live T-24 cells after 72 hours, Number of cells: 0.450
